Laboratory results reported in ChEMBL document CHEMBL1201862, “PubChem BioAssay data set” (2004).
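Five compound concentrations were applied to cells in 96-well plates for 48 hours; endpoints were derived by simple linear interpolation of the resulting dose-response curve. Here, GI50 denotes the concentration required for 50% inhibition of growth.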 The source made the active and inactive calls. Rule as the data show it: active = GI50 up to about 1.1 µM and inactive = higher. Where a SMILES comes first, the peptide text is derived from it. The star is where a group is joined. Boc = CC(C)(C)OC(=O)*

Tests used:
Assay in all cases: growth of human tumour cells (NCI), 48 h
DMS-273 = tested on: DMS-273
SNB-75 = tested on: SNB-75
HOP-62 = tested on: HOP-62
IGROV-1 = tested on: IGROV-1
DLD-1 = tested on: DLD-1
UO-31 = tested on: UO-31
OVCAR-4 = tested on: OVCAR-4
SNB-78 = tested on: SNB-78
SF-295 = tested on: SF-295
SF-539 = tested on: SF-539
DMS-114 = tested on: DMS-114
SK-MEL-2 = tested on: SK-MEL-2
MOLT-4 = tested on: MOLT-4
HOP-18 = tested on: HOP-18
NCI-H226 = tested on: NCI-H226
MDA-MB-231 = tested on: MDA-MB-231
PC-3 = tested on: PC-3
Hs-578T = tested on: Hs-578T
MDA-MB-435 = tested on: MDA-MB-435
MDA-N = tested on: MDA-N

Compound	GI50 (DMS-273)	GI50 (SNB-75)	GI50 (HOP-62)	GI50 (IGROV-1)	GI50 (DLD-1)	GI50 (UO-31)	GI50 (OVCAR-4)	GI50 (SNB-78)	GI50 (SF-295)	GI50 (SF-539)	GI50 (DMS-114)	GI50 (SK-MEL-2)	GI50 (MOLT-4)	GI50 (HOP-18)	GI50 (NCI-H226)	GI50 (MDA-MB-231)	GI50 (PC-3)	GI50 (Hs-578T)	GI50 (MDA-MB-435)	GI50 (MDA-N)
Cc1nc2ccccc2c(=O)n1Nc1ccc(C(=O)O)cc1	> 100 µM (inactive)	> 100 µM (inactive)	> 100 µM (inactive)	> 100 µM (inactive)	> 100 µM (inactive)	> 100 µM (inactive)	> 100 µM (inactive)	> 100 µM (inactive)	> 100 µM (inactive)	> 100 µM (inactive)	> 100 µM (inactive)	> 100 µM (inactive)	> 100 µM (inactive)	> 100 µM (inactive)	> 100 µM (inactive)					
c1ccc(-c2nnc(-c3nsc4ccccc34)o2)cc1	> 100 µM (inactive)	2.56 µM (inactive)	> 100 µM (inactive)	60.4 µM (inactive)		19.5 µM (inactive)	> 100 µM (inactive)	98.9 µM (inactive)		> 100 µM (inactive)	> 100 µM (inactive)	> 100 µM (inactive)	> 100 µM (inactive)							
NC(C/C=C/P(=O)(O)O)C(=O)O (stereo not given)		14.1 µM (inactive)		> 100 µM (inactive)		> 100 µM (inactive)	> 100 µM (inactive)		> 100 µM (inactive)	> 100 µM (inactive)		> 100 µM (inactive)	> 100 µM (inactive)			> 100 µM (inactive)	> 100 µM (inactive)	> 100 µM (inactive)	> 100 µM (inactive)	> 100 µM (inactive)
CC(Cc1ccccc1)Nc1ncnc2c1ncn2C1OC(CO)CC1O (stereo not given)		> 100 µM (inactive)	> 100 µM (inactive)	> 100 µM (inactive)		> 100 µM (inactive)	> 100 µM (inactive)		1.93 µM (inactive)			> 100 µM (inactive)	> 100 µM (inactive)		> 100 µM (inactive)	> 100 µM (inactive)	> 100 µM (inactive)	58.7 µM (inactive)	> 100 µM (inactive)	> 100 µM (inactive)
CCCN(CCC)c1cc2c(cc1F)c(=O)c(C(=O)O)cn2-c1ccc(N2CCN(C)CC2)cn1		14.7 µM (inactive)	16.7 µM (inactive)	12.9 µM (inactive)		13.3 µM (inactive)	19.2 µM (inactive)		17.8 µM (inactive)	17.1 µM (inactive)			16.2 µM (inactive)		16.7 µM (inactive)	13.5 µM (inactive)	19 µM (inactive)	17 µM (inactive)	19.4 µM (inactive)	20.1 µM (inactive)
CCOCNC(=O)N(COCC)COCC		> 100 µM (inactive)	> 100 µM (inactive)	> 100 µM (inactive)	> 100 µM (inactive)	> 100 µM (inactive)		> 100 µM (inactive)	> 100 µM (inactive)	> 100 µM (inactive)	> 100 µM (inactive)	> 100 µM (inactive)	> 100 µM (inactive)		> 100 µM (inactive)					
COc1ccc(-c2cc(O)c3ccc(C)nc3n2)cc1			> 100 µM (inactive)	43.2 µM (inactive)		> 100 µM (inactive)	> 100 µM (inactive)			> 100 µM (inactive)		> 100 µM (inactive)	49.4 µM (inactive)		> 100 µM (inactive)	> 100 µM (inactive)		> 100 µM (inactive)		
CCOC(=O)C(Cc1ccc(N=NN(C)C)cc1)NC(=O)CC1c2ccccc2-c2ccccc21 (stereo not given)	55.3 µM (inactive)	> 100 µM (inactive)	> 100 µM (inactive)	69.8 µM (inactive)	48.1 µM (inactive)	> 100 µM (inactive)	> 100 µM (inactive)		> 100 µM (inactive)	> 100 µM (inactive)	> 100 µM (inactive)	> 100 µM (inactive)	38.3 µM (inactive)		> 100 µM (inactive)					
COc1cc(O)c2c(=O)cc(C3(O)C=CC(=O)C=C3)oc2c1		1.22 µM (inactive)	0.182 µM (active)	< 0.01 µM (active)		0.0733 µM (active)	0.393 µM (active)		0.631 µM (active)	< 0.01 µM (active)		0.619 µM (active)	0.0815 µM (active)		0.394 µM (active)	0.327 µM (active)	0.131 µM (active)	0.968 µM (active)		
CSc1nc2c(c(N3CCOCC3)n1)C(O)n1c(nc3ccccc31)S2 (stereo not given)		30.5 µM (inactive)	40.6 µM (inactive)	> 100 µM (inactive)		3.93 µM (inactive)	41 µM (inactive)		33.5 µM (inactive)	3.8 µM (inactive)		29.7 µM (inactive)	> 100 µM (inactive)			50.2 µM (inactive)	37.2 µM (inactive)	23.7 µM (inactive)	95.3 µM (inactive)	> 100 µM (inactive)
COC(=O)c1cccc(N[C@@H]2c3cc4c(cc3C(c3cc(OC)c(O)c(OC)c3)[C@H]3C(=O)OCC32)OCO4)c1 (stereo not given in full)	0.362 µM (active)	1.87 µM (inactive)	0.239 µM (active)	3.13 µM (inactive)	1.89 µM (inactive)	0.718 µM (active)	7.08 µM (inactive)	3.67 µM (inactive)	0.543 µM (active)	0.528 µM (active)	0.568 µM (active)	4.69 µM (inactive)	0.0328 µM (active)	2.62 µM (inactive)	0.662 µM (active)					
Nc1nc(O)c2ncn(C3C=CC(CO)O3)c2n1 (stereo not given)		> 100 µM (inactive)	> 100 µM (inactive)			> 100 µM (inactive)	> 100 µM (inactive)		> 100 µM (inactive)			> 100 µM (inactive)	> 100 µM (inactive)		> 100 µM (inactive)	> 100 µM (inactive)	> 100 µM (inactive)	> 100 µM (inactive)	> 100 µM (inactive)	> 100 µM (inactive)
COc1ccc(Cc2nn(C3OC(COC(C)=O)C(OC(C)=O)C(OC(C)=O)C3OC(C)=O)c(=S)n(-c3ccc(OC)cc3)c2=O)cc1 (stereo not given)	> 100 µM (inactive)	43.5 µM (inactive)	> 100 µM (inactive)	> 100 µM (inactive)	> 100 µM (inactive)	> 100 µM (inactive)	> 100 µM (inactive)	> 100 µM (inactive)	> 100 µM (inactive)	> 100 µM (inactive)		> 100 µM (inactive)	> 100 µM (inactive)	> 94 µM (inactive)	> 100 µM (inactive)					
COc1cccc2c(Nc3ccc(S(=O)(=O)Nc4ncccn4)cc3)c3ccc([N+](=O)[O-])cc3nc12			85.3 µM (inactive)	4.13 µM (inactive)		5.66 µM (inactive)	> 100 µM (inactive)		> 100 µM (inactive)	37.8 µM (inactive)		89.9 µM (inactive)	14.3 µM (inactive)		38.7 µM (inactive)	38.7 µM (inactive)	40.6 µM (inactive)	> 100 µM (inactive)	45.6 µM (inactive)	54.5 µM (inactive)
CN1NC(c2ccc(Cl)cc2)=C(C#N)C(=O)CC1c1ccccc1 (stereo not given)	> 100 µM (inactive)	> 100 µM (inactive)			> 100 µM (inactive)		> 100 µM (inactive)		> 100 µM (inactive)		> 100 µM (inactive)	> 100 µM (inactive)		29.9 µM (inactive)	> 10 µM (inactive)					
NC(=O)CCC(NCc1c2ccccc2[n+]([O-])c2ccccc12)C(=O)O (stereo not given)	56.8 µM (inactive)	49.7 µM (inactive)	> 100 µM (inactive)	> 100 µM (inactive)	46.9 µM (inactive)	59 µM (inactive)	40.1 µM (inactive)	> 100 µM (inactive)	> 100 µM (inactive)		41.9 µM (inactive)	95.9 µM (inactive)	30 µM (inactive)	33.5 µM (inactive)	60.1 µM (inactive)					
CCc1c(O)c2c(c(O)c1C(C)=O)C(=O)c1c(cc(O)c(C(=O)O)c1C(=O)O)C2=O		> 100 µM (inactive)	> 100 µM (inactive)	> 100 µM (inactive)		> 100 µM (inactive)	> 100 µM (inactive)		> 100 µM (inactive)	> 100 µM (inactive)		> 100 µM (inactive)	> 100 µM (inactive)		> 100 µM (inactive)	> 100 µM (inactive)	> 100 µM (inactive)	> 100 µM (inactive)	> 100 µM (inactive)	> 100 µM (inactive)
CN1CCC(C(O)(c2ccccc2)c2ccc(Br)cc2)CC1 (stereo not given)		16.6 µM (inactive)	24.8 µM (inactive)	25.9 µM (inactive)		12.5 µM (inactive)	22.7 µM (inactive)		17.9 µM (inactive)	17.6 µM (inactive)		16.2 µM (inactive)	23.1 µM (inactive)		21.8 µM (inactive)	14.7 µM (inactive)	22.2 µM (inactive)	23.8 µM (inactive)	15.5 µM (inactive)	15 µM (inactive)
CC(C)(C)OC(=O)NC(Cc1ccccc1)C(=O)N1CCCC1C(N)=O (stereo not drawn) (Boc-Phe-Pro-NH2; configuration not given here)			> 100 µM (inactive)	> 100 µM (inactive)			> 100 µM (inactive)		> 100 µM (inactive)				> 100 µM (inactive)			> 100 µM (inactive)	> 100 µM (inactive)		> 100 µM (inactive)	> 100 µM (inactive)
Cc1ccc(S(=O)(=O)OC[C@@H]2CO2)cc1	> 100 µM (inactive)	> 100 µM (inactive)	> 100 µM (inactive)	> 100 µM (inactive)	> 100 µM (inactive)	> 100 µM (inactive)	> 100 µM (inactive)	> 100 µM (inactive)		> 100 µM (inactive)		> 100 µM (inactive)	> 100 µM (inactive)	> 100 µM (inactive)	> 100 µM (inactive)					
